Data: US4596829A, “7-acylaminocephalosporanic acid derivatives and processes for the preparation thereof” (Fujisawa Pharmaceutical Co., Ltd., priority 1980, dated 1986)
≈ marks a conversion by molar mass, not a printed value.

Key:
[1] = test system: Proteus vulgaris IAM-1025; experiment: in vitro antimicrobial activity, two-fold agar-plate dilution method (MIC); format: cell-based; conditions: IAM1025, heart infusion agar, 37° C., 20 hours
Protocol: (§1) In vitro antimicrobial activity was determined by the two-fold agar-plate dilution method as described below.
(§2) One loopful of an overnight culture of each test strain in Tripticase-soy broth (approximately 10^8 viable cells per ml) was streaked on heart infusion agar (HI-agar) containing graded concentrations of antimicrobial agents, and the minimal inhibitory concentration (MIC) was expressed in term of μg/ml after incubation at 37° C. for 20 hours.

[2] = test system: Pseudomonas aeruginosa NCTC-10490; experiment: as above; format: cell-based; conditions: NCTC10490, heart infusion agar, 37° C., 20 hours
Protocol: as §1, §2

CC(O/N=C(\C(=O)NC1C(=O)N2C(C(=O)O)=CCSC12)c1nc(N)sc1Cl)C(=O)O (stereo not drawn) [Compound 1, 7-[2-(2-amino-5-chlorothiazol-4-yl)-2-(1-carboxyethoxyimino)acetamido]-3-cephem-4-carboxylic acid (syn isomer)]
MIC [1]: 0.05 µg/mL (≈ 0.105 µM)
MIC [2]: 0.78 µg/mL (≈ 1.64 µM)

C#CCO/N=C(\C(=O)NC1C(=O)N2C(C(=O)O)=C(CSc3nncs3)CSC12)c1nc(N)sc1Cl (stereo not drawn) [Compound 2, 7-[2-(2-amino-5-chlorothiazol-4-yl)-2-propargyloxyiminoacetamido]-3-(1,3,4-thiadiazol-2-yl)thiomethyl-3-cephem-4-carboxylic acid (syn isomer)]
MIC [1]: 1.56 µg/mL (≈ 2.73 µM)
MIC [2]: 0.78 µg/mL (≈ 1.36 µM)

Nc1nc(/C(=N/OCC(=O)O)C(=O)NC2C(=O)N3C(C(=O)O)=C(CSc4nncs4)CSC23)c(Cl)s1 (stereo not drawn) [Compound 3, 7-[2-(2-amino-5-chlorothiazol-4-yl)-2-carboxymethoxyiminoacetamido]-3-(1,3,4-thiadiazol-2-yl)thiomethyl-3-cephem-4-carboxylic acid (syn isomer)]
MIC [1]: 0.025 µg/mL (≈ 0.0422 µM)
MIC [2]: 0.78 µg/mL (≈ 1.32 µM)

C=CCO/N=C(\C(=O)NC1C(=O)N2C(C(=O)O)=C(CSc3nncs3)CSC12)c1nc(N)sc1Cl (stereo not drawn) [Compound 4, 7-[2-(2-amino-5-chlorothiazol-4-yl)-2-allyloxyiminoacetamido]-3-(1,3,4-thiadiazol-2-yl)thiomethyl-3-cephem-4-carboxylic acid (syn isomer)]
MIC [1]: 1.56 µg/mL (≈ 2.72 µM)
MIC [2]: 0.78 µg/mL (≈ 1.36 µM)

Nc1nc(/C(=N/OC2C=CCC2)C(=O)NC2C(=O)N3C(C(=O)O)=C(CSc4nncs4)CSC23)c(Cl)s1 (stereo not drawn) [Compound 5, 7-[2-(2-amino-5-chlorothiazol-4-yl)-2-(2-cyclopenten-1-yl)oxyiminoacetamido]-3-(1,3,4-thiadiazol-2-yl)thiomethyl-3-cephem-4-carboxylic acid (syn isomer)]
MIC [1]: 0.39 µg/mL (≈ 0.65 µM)
MIC [2]: 0.39 µg/mL (≈ 0.65 µM)

Nc1nc(/C(=N/OCC(=O)O)C(=O)NC2C(=O)N3C(C(=O)O)=C(Cl)CSC23)c(Cl)s1 (stereo not drawn) [Compound 6, 7-[2-(2-amino-5-chlorothiazol-4-yl)-2-carboxymethoxyiminoacetamido]-3-chloro-3-cephem-4-carboxylic acid (syn isomer)]
MIC [1]: 0.05 µg/mL (≈ 0.101 µM)
MIC [2]: 0.78 µg/mL (≈ 1.57 µM)
